≈ marks a conversion by molar mass, not a printed value.
What was measured:
[1] = test system: MRSA; assay: Antibacterial assay, broth microdilution MIC (Test A); type: cell-based; settings: Staphylococcus aureus, MIC values may be lower as solubility and aggregate formation may reduce observed activity
Description: (§1) Antibacterial activity can be determined as per Clinical and Laboratory Standards Institute (CLSI) guidelines using a broth microdilution assay in which log-phase bacteria are grown at 37° C. in appropriate medium containing two-fold serial dilutions of a compound to yield final concentrations ranging from 256 to 0.06 μg/mL. For determination of minimal inhibitory concentration (MIC) values, bacterial growth is monitored after 24 to 48 hours by measuring optical density at 600 nm.

[2] = test system: MSSA; assay: as above; type: cell-based; settings: Staphylococcus aureus, MIC values may be lower as solubility and aggregate formation may reduce observed activity
Description: as §1

[3] = test system: S. aureus ATCC 19636 (MSSA); assay: In vivo efficacy, mouse peritonitis model of systemic infection (Test D), MSSA; settings: mice
Description: Antistaphylococcal efficacy in vivo was assessed in a mouse peritonitis model of systemic infection with S. aureus ATCC 19636 (MSSA) or ATCC 43300 (MRSA). These studies were conducted in full compliance with the standards established by the US National Research Council's Guide for the Care and Use of Laboratory Animals, and were approved by the Institutional Animal Care and Use Committee (IACUC) of Rutgers University. Groups of 4-6 female Swiss-Webster mice with an average weight of 25 g were infected intraperitoneally with a lethal inoculum of each bacterial strain in saline. The inoculum of S. aureus ATCC 43300 contained 1.0×10^8 CFUs/mL of bacteria, while the inoculum of S. aureus ATCC 19636 contained 0.8×10^7 CFUs/mL of bacteria. All the inocula also contained porcine mucin (Sigma-Aldrich, Co.) at a (w/v) percentage of 1.5% (in ATCC 19636 inocula) or 5% (in the ATCC 43300 inoculum). The differing compositions of the inocula of these S. aureus strains were selected based on the virulence of each strain, with MSSA ATCC 19636 being the more virulent strain and MRSA ATCC 43300 being the less virulent strain.
All compound and vehicle intravenous (i.v.) administrations were by tail vein injection, with 17 being formulated at 2.0 mg/mL and 44 being formulated at both 2.0 and 3.0 mg/ml in 10 mM citrate (pH 2.6).
In the MSSA ATCC 19636 experiments, the first dose of compound was administered 10 minutes after infection, with subsequent doses being administered at 12-minute intervals thereafter unless otherwise noted. In the MRSA studies, the first dose of compound was administered one hour after infection, with subsequent doses being administered at 12-minute intervals thereafter unless otherwise indicated.
The body temperatures of all mice were monitored for a period of 5 days after infection. Body temperatures were recorded at the Xiphoid process using a noninvasive infrared thermometer (Braintree Scientific, Inc., Braintree, MA). Infected mice with body temperatures ≤28.9° C. were viewed as being unable to recover from the infection and were euthanized.

[4] = test system: S. aureus ATCC 43300 (MRSA); assay: In vivo efficacy, mouse peritonitis model of systemic infection (Test D), MRSA; settings: mice, p.o., total dose 4.8 mg/mouse
[5] = i.v., 1x, total dose 0.6 mg/mouse, first dose immediately prior to infection
[6] = i.v., 2x, total dose 1.2 mg/mouse, first dose immediately prior to infection, subsequent doses 15 minutes following
[7] = p.o., 1x, total dose 0.8 mg/mouse, first dose 5 minutes prior to infection
[8] = p.o., 2x, total dose 1.6 mg/mouse, first dose 5 minutes prior to infection, subsequent doses 15 minutes apart
[9] = p.o., 4x, total dose 3.2 mg/mouse, first dose 5 minutes prior to infection, subsequent doses 15 minutes apart
[10] = 6x (no footnote: first dose one hour after infection, 12-minute intervals)
[11] = 6x, first dose 5 minutes prior to infection, subsequent doses 12 minutes apart
[12] = 6x, first dose 10 minutes post-infection, subsequent doses 12 minutes apart
[13] = i.v., 2x, total dose 1.8 mg/mouse
[14] = p.o., 1x, total dose 0.8 mg/mouse
[15] = p.o., 2x, total dose 1.6 mg/mouse
[16] = p.o., 3x, total dose 2.4 mg/mouse
[17] = p.o., 4x, total dose 3.2 mg/mouse

CCC(=O)NC(=O)c1c(F)ccc(OCc2nc3cc(Cl)ccc3s2)c1F [Example 5]
MIC [1]: 2 µg/mL (≈ 4.87 µM)
MIC [2]: 2 µg/mL (≈ 4.87 µM)

CN1CCC(C(=O)NC(=O)c2c(F)ccc(OCc3nc4cc(Cl)cnc4s3)c2F)CC1 [Example 17]
Survival (%) 24 Hrs [3, 5]: 0%
Survival (%) 48 Hrs [3, 5]: 0%
Survival (%) 72 Hrs [3, 5]: 0%
Survival (%) 24 Hrs [3, 6]: 0%
Survival (%) 48 Hrs [3, 6]: 0%
Survival (%) 72 Hrs [3, 6]: 0%
Survival (%) 24 Hrs [3, 7]: 0%
Survival (%) 48 Hrs [3, 7]: 0%
Survival (%) 72 Hrs [3, 7]: 0%
Survival (%) 24 Hrs [3, 8]: 0%
Survival (%) 48 Hrs [3, 8]: 0%
Survival (%) 72 Hrs [3, 8]: 0%
Survival (%) 24 Hrs [3, 9]: 100%
Survival (%) 48 Hrs [3, 9]: 100%
Survival (%) 72 Hrs [3, 9]: 100%
Survival (%) 48 Hrs [4, 10]: 50%
Survival (%) 72 Hrs [4, 10]: 50%
Survival (%) 24 Hrs [4, 11]: 100%
Survival (%) 48 Hrs [4, 11]: 100%
Survival (%) 72 Hrs [4, 11]: 100%
Survival (%) 24 Hrs [4, 12]: 100%
Survival (%) 48 Hrs [4, 12]: 100%
Survival (%) 72 Hrs [4, 12]: 100%

CN1CCC(C(=O)NC(=O)c2c(F)ccc(OCc3nc4cc(C(F)(F)F)cnc4s3)c2F)CC1 [Example 44]
Survival (%) 24 Hrs [3, 13]: 100%
Survival (%) 48 Hrs [3, 13]: 100%
Survival (%) 72 Hrs [3, 13]: 100%
Survival (%) 24 Hrs [3, 14]: 50%
Survival (%) 48 Hrs [3, 14]: 50%
Survival (%) 72 Hrs [3, 14]: 50%
Survival (%) 24 Hrs [3, 15]: 100%
Survival (%) 48 Hrs [3, 15]: 100%
Survival (%) 72 Hrs [3, 15]: 100%
Survival (%) 24 Hrs [3, 16]: 100%
Survival (%) 48 Hrs [3, 16]: 100%
Survival (%) 72 Hrs [3, 16]: 100%
Survival (%) 24 Hrs [3, 17]: 100%
Survival (%) 48 Hrs [3, 17]: 100%
Survival (%) 72 Hrs [3, 17]: 100%

From patent US20250206755A1, “ANTIMICROBIAL AGENTS” (RUTGERS, THE STATE UNIVERSITY OF NEW JERSEY, priority 2012, published 2025)
